Test system: rat pituitary cells
Experiment: in vitro release of growth hormone from cultured rat pituitary cells (ir GH by radioimmunoassay), side-by-side with hGRF(1-44)-NH2
Assay type: cell-based
Experimental: To determine the effectiveness of the peptide to promote the release of growth hormone, in vitro assays are carried out using synthetic hGRF(1-44)-NH2 in side-by-side comparison with equimolar concentrations of the extracted and purified oGRF(1-44) of Example II. hGRF thus serves as a GRF Reference Standard having a known effectiveness to promote the release of growth hormone from rat pituitary cells. Cultures are used which include cells of rat pituitary glands removed some four to five days previously. Both cultures of a defined standard medium and cultures which are considered optimal for the secretion of growth hormone are used for the comparative testing, in the general manner described in Brazeau, et al. Regulatory Peptides, 1, 255, 1981. Incubation with the substance to be tested is carried out for 3 to 4 hours, and aliquots of the culture medium are removed and processed to measure their contents in immunoreactive GH(ir GH) by a well-characterized radioimmunoassay.

[1] = equimolar ratios, incubation 3 to 4 hours, ir GH in culture medium by RIA
[2] = multiple doses factorial design experiments

Q: How did the “intrinsic biological activity (release of growth hormone) compared with synthetic hGRF(1-44)-NH2” value [1] turn out when `CC[C@H](C)[C@H](NC(=O)[C@H](C)NC(=O)[C@H](CC(=O)O)NC(=O)[C@H](C)NC(=O)[C@@H](N)Cc1ccc(O)cc1)C(=O)N[C@@H](Cc1ccccc1)C(=O)N[C@H](C(=O)N[C@@H](CC(N)=O)C(=O)N[C@@H](CO)C(=O)N[C@@H](Cc1ccc(O)cc1)C(=O)N[C@@H](CCCNC(=N)N)C(=O)N[C@@H](CCCCN)C(=O)N[C@H](C(=O)N[C@@H](CC(C)C)C(=O)NCC(=O)N[C@@H](CCC(N)=O)C(=O)N[C@@H](CC(C)C)C(=O)N[C@@H](CO)C(=O)N[C@@H](C)C(=O)N[C@@H](CCCNC(=N)N)C(=O)N[C@@H](CCCCN)C(=O)N[C@@H](CC(C)C)C(=O)N[C@@H](CC(C)C)C(=O)N[C@@H](CCC(N)=O)C(=O)N[C@@H](CC(=O)O)C(=O)N[C@H](C(=O)N[C@@H](CCSC)C(=O)N[C@@H](CC(N)=O)C(=O)N[C@@H](CCCNC(=N)N)C(=O)N[C@@H](CCC(N)=O)C(=O)N[C@@H](CCC(N)=O)C(=O)NCC(=O)N[C@@H](CCC(=O)O)C(=O)N[C@@H](CCCNC(=N)N)C(=O)N[C@@H](CC(N)=O)C(=O)N[C@@H](CCC(N)=O)C(=O)N[C@@H](CCC(=O)O)C(=O)N[C@@H](CCC(N)=O)C(=O)NCC(=O)N[C@@H](C)C(=O)N[C@@H](CCCCN)C(=O)N[C@H](C(=O)N[C@@H](CCCNC(=N)N)C(=O)N[C@@H](CC(C)C)C(N)=O)C(C)C)[C@@H](C)CC)[C@@H](C)CC)[C@@H](C)O` [oGRF(1-44)] was run?
A: The value was “full intrinsic biological activity of the synthetic peptide”.

Q: And the “potency (release of growth hormone) compared with synthetic hGRF(1-44)-NH2” value [1]?
A: The value was “close to the same potency”.

Q: And the “intrinsic activity compared with hGRF(1-44)-NH2” value [2]?
A: Its value is “about the same intrinsic activity as hGRF(1-44)-NH2”.

Q: What about the “specific activity relative to hGRF(1-44)-NH2” value [2] of the same molecule?
A: Its value is “about 70 % of hGRF(1-44)-NH2”.
